Source: patent publication US8022040B2, “Hydroxyapatite-binding peptides for bone growth and inhibition” (The Regents of the University of California, priority 2004, dated 2011)
Like-named read-outs stand apart in the source and are kept apart here. Positions of bridges follow the written chain, without caps; N, C: chain ends. No end group written: not given here.

Key:
[1] = for HA nucleation templated by peptide deposited from cosolvent: 1.5 mg/ml in acetonitrile and water (1:1/v:v), dried on grid, soaked in mineral precursor solutions; for HA nucleation templated by peptide solution in 100% water: compared to peptides 1 and 2
Protocol: (CaCl2 (10 mM)+Na2HPO4 (5 mM)→Ca10(OH)2(PO4)6). The inset photographs show the X-ray diffraction patterns of the crystals at each timepoint.
In order to investigate the nucleation ability of these binding peptides, the major 12-mer linear binding peptide was synthesized by solid phase synthetic method and subjected to HA-mineralization on holey carbon film-coated TEM grids according to J. D. Hartgerink, E. Beniash, S. I. Stupp, Science, 294, 1684 (2001), which is hereby incorporated by reference.
In order to study kinetics of HA nucleation by this peptide suspension, time dependence nucleation was investigated by preparing parallel TEM samples where HA was nucleated for 30 min (FIG. 20, Panel C), 1 hr (FIG. 20, Panel D), and 2 hrs (FIG. 20, Panel E) by same concentration peptide suspension.

[2] = Flow cytometric measurement of fluorescence intensity of binding viruses on HA surfaces
Protocol: (§1) Single crystalline and polycrystalline HA were freshly etched to remove carbonated contaminates and incubated with 1×10^10 pfu of phage of W4a-4-14 (Single 14), W4a-4-15 (single 15), HA-4-3 (poly 3), wild type (wild) phages suspension for these assays.
(§2) As described in Example 1, 4 mg of single crystalline HA was freshly etched to remove carbonated contaminates and incubated with 1×10^10 pfu of phage of constrained W4a-4-14 (Single 14), W4a-4-15 (single 15), HA-4-3 (poly 3), wild type (wild) phages suspension. After washing off with TBST (0.5%) ten times, the bound phage was eluted using glycine-HCl […] and titered to count number of bound phage.
After 30 minutes incubation of 4 mg/ml of HA crystals with ˜10^10 pfu/ml of each phage, CLP7, CLP12, or the wild type phages, the HA crystals were washed ten times with Tris-buffered saline solution (pH 7.5) contained 0.5% Tween 20. The phage bound to HA surfaces was labeled by R-phycoerythrin-conjugated monoclonal pVIII antibody (Amersham Pharmacia Biotech, UK), and the fluorescence images were acquired (Nikon fluorescence microscope, Japan) and the fluorescence intensity was quantified by FACS Calibur flow cytometer (BD Biosciences, Calif.).

[3] = Phage titering assay counting phage eluted from HA; assay type: binding; settings: FIG. 12 Panel B; comparing to the wild type viruses / the other three peptides; TBST (0.5%) wash, glycine-HCl elution
Protocol: as §1, §2

[4] = 1.5 mg/ml peptide, two hours mineralization, 5 mM Na2HPO4 + 10 mM CaCl2

Substance	HA deposition templated by peptide (TEM/SAED) [1, 4]	HA nucleation templated by peptide deposited from cosolvent [1]	HA nucleation templated by peptide solution in 100% water [1]	other results
NPDHPDIPQDVH-GGGK-biotin [Control peptide 2]	amorphous deposition of calcium phosphate without any clear diffraction patterns	–	–	–
NPYHPTIPQSVH-GGGK-biotin [single 15-biotin]	well crystallized HA deposition	–	–	HA deposition templated by peptide (TEM/SAED) ([1]; 15 mg/ml peptide, two hours, same amount of CaCl2 and Na2HPO4): well-crystallized HA crystals; HA nucleation, time dependence (TEM/SAED) ([1]; 30 min): amorphous deposition of calcium phosphate; HA nucleation, time dependence (TEM/SAED) ([1]; after 2 hours): fully developed HA crystals were nucleated
NPYAPTIPQSVA-GGGK-biotin [peptide 4]	–	nucleation phenomena similar to those templated by HA binding peptides	relatively bigger amorphous calcium phosphate aggregation	–
NPYHPTIPQSVH [Single 15]	–	–	–	improved binding affinity (fluorescence intensity of binding viruses on HA surfaces) ([2]; flow cytometry, FIG. 12 Panel A, phage-displayed peptide compared to wild type phage, 1×10^10 pfu): around 50%
Cys Asn Tyr Pro Thr Leu Lys Ser Cys (CNYPTLKSC; disulfide 1-9 (inferred); also: displayed on M13 phage) [single 14]	–	–	–	strength of HA binding relative to comparators [3]: almost three times stronger; binding to HA surfaces, rank among viruses tested ([2]; phage-displayed peptides single 14, single 15, poly 3 and wild type): bind best to HA surfaces among all viruses tested
NPYHPTIPQSVH-GGGK-biotin [peptide 3]	–	nucleation phenomena similar to those templated by HA binding peptides	reduced HA-nucleation ability with different morphology of HA crystals	–
APYHPTIPASVH-GGGK-biotin [peptide 5]	–	nucleation phenomena similar to those templated by HA binding peptides	relatively bigger amorphous calcium phosphate aggregation	–
NIYHPTPPQSVH-GGGK-biotin [control peptide 1]	amorphous calcium phosphate deposition without any clear SAED patterns	–	–	–
